Laboratory results taken from ChEMBL document CHEMBL1201862, “PubChem BioAssay data set” (2004).
Active and inactive are the calls of the source.

Key:
[1] = Jurkat T cell cytotoxicity, dose response, cytotoxicity control for P. falciparum gametocyte viability project, luminescence (AID 1117277); type: functional, cell-based;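 further: potency reflects loss of cellular ATP meaning fewer viable cells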
[2] = P. falciparum late gametocyte killing, dose response, luminescence (AID 1117278); type: functional, cell-based;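 further: gametocytes exposed to compound for 24 hours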
[3] = target: T1, Oxysterols receptor LXR-beta (Homo sapiens, UniProt P55055); type: functional, cell-based;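 further: agonist activity at LXR measured by a cell-based luminescence readout across a dose range, run as a counterscreen for daf-12 agonists; HEK293 cells with Gal4-LXR fusion and GAL4-driven luciferase reporter; potency for activation of Gal4-LXR reporter so compounds are agonists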
T1 sequence (P55055 whole entry): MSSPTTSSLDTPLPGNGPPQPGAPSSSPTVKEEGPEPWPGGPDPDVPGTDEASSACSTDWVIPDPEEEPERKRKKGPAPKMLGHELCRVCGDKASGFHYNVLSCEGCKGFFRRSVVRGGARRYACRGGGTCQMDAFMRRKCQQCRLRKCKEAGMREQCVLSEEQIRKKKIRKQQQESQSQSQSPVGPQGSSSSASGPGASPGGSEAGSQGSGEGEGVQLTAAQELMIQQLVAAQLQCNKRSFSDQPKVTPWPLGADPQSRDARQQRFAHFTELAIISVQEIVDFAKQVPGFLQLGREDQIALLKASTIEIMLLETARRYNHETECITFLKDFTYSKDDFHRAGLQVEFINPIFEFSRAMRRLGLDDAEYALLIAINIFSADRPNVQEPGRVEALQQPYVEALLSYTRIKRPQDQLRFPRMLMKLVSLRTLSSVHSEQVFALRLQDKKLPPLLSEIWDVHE

[4] = target: T2, Tyrosine-protein phosphatase non-receptor type 7 (Homo sapiens, UniProt P35236); test: inhibitors of human HePTP phosphatase, […], biochemical, absorbance, leukemia target (AID 521); type: functional
T2 sequence (P35236 whole entry): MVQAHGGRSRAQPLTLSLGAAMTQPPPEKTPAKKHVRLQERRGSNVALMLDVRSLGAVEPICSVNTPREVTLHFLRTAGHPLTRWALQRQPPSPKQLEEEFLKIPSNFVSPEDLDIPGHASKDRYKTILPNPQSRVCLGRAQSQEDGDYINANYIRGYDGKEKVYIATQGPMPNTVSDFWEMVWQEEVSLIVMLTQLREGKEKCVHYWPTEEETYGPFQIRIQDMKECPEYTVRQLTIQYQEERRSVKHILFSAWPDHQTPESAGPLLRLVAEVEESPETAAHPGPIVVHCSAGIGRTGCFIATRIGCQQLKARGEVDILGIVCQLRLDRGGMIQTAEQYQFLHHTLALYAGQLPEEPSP

[5] = target: T3, DNA repair protein RAD52 homolog (Homo sapiens, UniProt P43351); type: functional, biochemical
T3 sequence (P43351 whole entry): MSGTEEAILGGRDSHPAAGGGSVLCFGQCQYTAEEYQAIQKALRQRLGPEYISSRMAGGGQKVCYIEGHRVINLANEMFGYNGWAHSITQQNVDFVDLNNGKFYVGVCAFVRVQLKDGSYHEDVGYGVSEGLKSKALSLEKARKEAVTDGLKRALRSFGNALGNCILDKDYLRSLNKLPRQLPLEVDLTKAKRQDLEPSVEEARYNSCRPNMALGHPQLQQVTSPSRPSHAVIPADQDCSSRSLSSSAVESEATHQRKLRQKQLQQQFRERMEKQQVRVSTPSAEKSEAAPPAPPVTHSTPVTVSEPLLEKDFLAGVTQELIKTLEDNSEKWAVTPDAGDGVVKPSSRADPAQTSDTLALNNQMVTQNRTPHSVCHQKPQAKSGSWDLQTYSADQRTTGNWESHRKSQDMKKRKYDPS

[6] = HepG2 cell cytotoxicity, dose response, cytotoxicity control, plate reader, cherry-pick, antagonist series (AID 743416); type: functional, cell-based
[7] = MC4R antagonists, dose response, counter-screen for LGR2 antagonist project, cell-based, plate reader, cherry pick (AID 743444); type: functional;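 further: transfected HEK 293 cells stimulated with alpha-MSH peptide; potency of inhibitors of the alpha-MSH evoked signal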
[8] = LGR2 antagonists, dose response, cell-based, HEK293, CRE-luciferase reporter, cherry pick, set 2 (AID 743343); type: functional;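 further: transfected cells were stimulated with diluted bursicon conditioned medium after compound addition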
[9] = inhibitors of SNCA 5'UTR-driven reporter translation, confirmation, H4 neuroglioma cells, luminescence (AID 1988); type: functional, cell-based
[10] = inhibitors of firefly luciferase expression or activity, dose response, H4 neuroglioma cells, luminescence (AID 1990); type: functional, cell-based
[11] = Luminescence Cell-Based Dose Response HTS to Identify Inhibitors of 5'UTR Stem-Loop Driven Prion Protein mRNA Translation in H4 Neuroglioblastoma Cells. [Related pubchem assays: 1827 (Project Summary), 1813 (Primary HTS)]; type: functional
[12] = HEK293 cell cytotoxicity, dose response, cytotoxicity control, plate reader, cherry-picked samples (AID 743446); type: functional, cell-based
[13] = A549 cell cytotoxicity, dose response, cytotoxicity control, plate reader, cherry-pick, antagonist series (AID 743412); type: functional, cell-based
[14] = target: T4, Endoribonuclease toxin MazF (Escherichia coli K-12, UniProt P0AE70); test: fluorescent RNA oligo signal without MazF, dose response, counter-screen for MazEF activator project, biochemical, fluorescence, single-stranded RNase substrate (AID 588502); type: functional
T4 sequence (P0AE70 whole entry): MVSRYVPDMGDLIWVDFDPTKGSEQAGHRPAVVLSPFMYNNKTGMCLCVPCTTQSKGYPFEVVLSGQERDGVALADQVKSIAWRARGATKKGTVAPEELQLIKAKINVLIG

[15] = HepG2 cell cytotoxicity, dose response, cytotoxicity control for Shn3 inhibitor project, CellTiter-Glo, cherry-picked (AID 624134); type: functional, cell-based
[16] = target: T4, Endoribonuclease toxin MazF; test: MazF toxin RNase activators, dose response, biochemical, fluorescence, single-stranded RNA substrate, uHTS hits (AID 588481); type: functional
Albumin = Albumin (Bos taurus, UniProt P02769); test: Counterscreen for inhibitors of T-cell receptor (TCR)-CD3 interaction: Fluorescence-based biochemical high throughput dose response assay to identify inhibitors of T-cell receptor (TCR)-CD3 interaction using a TAMRA-labeled BSA probe.; type: functional
[17] = target: T5, Trace amine-associated receptor 1 (Homo sapiens, UniProt Q96RJ0); test: Counterscreen for agonists of the human trace amine associated receptor 1 (hTAAR1): Fluorescence-based cell-based high throughput dose response assay to identify hTAAR1 agonist that also desensitize TAAR1 receptor response.; type: functional
T5 sequence (Q96RJ0 whole entry): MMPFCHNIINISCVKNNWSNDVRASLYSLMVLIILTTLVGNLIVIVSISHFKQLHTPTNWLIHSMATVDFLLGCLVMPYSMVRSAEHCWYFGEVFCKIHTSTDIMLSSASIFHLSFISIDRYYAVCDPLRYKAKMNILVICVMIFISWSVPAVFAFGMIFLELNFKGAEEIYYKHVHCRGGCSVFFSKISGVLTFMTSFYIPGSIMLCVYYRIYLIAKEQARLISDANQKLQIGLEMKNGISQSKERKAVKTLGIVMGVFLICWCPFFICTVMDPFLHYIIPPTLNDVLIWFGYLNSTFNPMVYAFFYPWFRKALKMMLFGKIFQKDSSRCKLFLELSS

cells [18] = type: functional, cell-based
[19] = target: T5, Trace amine-associated receptor 1; test: Fluorescence-based cell-based high throughput dose response assay to identify agonists of the human trace amine associated receptor 1 (TAAR1).; type: functional
cells [20] = type: functional, cell-based; remark: listed apart in the source
[21] = P. falciparum Dd2 growth inhibitors, dose response, SYBR Green, cherry-picked samples (AID 1159567); type: functional, cell-based
[22] = HepG2 cell cytotoxicity, dose response, cytotoxicity control, cherry-picked samples (AID 1159577); type: functional, cell-based

Sequence of Albumin (P02769 whole entry): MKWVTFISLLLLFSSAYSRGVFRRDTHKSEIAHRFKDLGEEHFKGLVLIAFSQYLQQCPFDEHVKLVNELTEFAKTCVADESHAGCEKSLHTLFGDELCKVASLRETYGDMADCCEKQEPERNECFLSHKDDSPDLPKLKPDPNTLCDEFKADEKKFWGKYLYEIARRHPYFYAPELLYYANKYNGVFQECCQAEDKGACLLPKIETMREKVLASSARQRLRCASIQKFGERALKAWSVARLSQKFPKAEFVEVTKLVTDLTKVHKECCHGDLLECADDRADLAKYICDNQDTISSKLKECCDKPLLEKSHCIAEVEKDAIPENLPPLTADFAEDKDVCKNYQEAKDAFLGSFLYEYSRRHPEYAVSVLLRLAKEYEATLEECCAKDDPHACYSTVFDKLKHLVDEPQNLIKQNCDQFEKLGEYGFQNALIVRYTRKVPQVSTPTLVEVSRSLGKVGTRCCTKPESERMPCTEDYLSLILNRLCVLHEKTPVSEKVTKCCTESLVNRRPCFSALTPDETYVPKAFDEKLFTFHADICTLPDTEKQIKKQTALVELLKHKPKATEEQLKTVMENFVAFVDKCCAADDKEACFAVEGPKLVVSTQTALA

CCOC(=O)CSc1nc2cc3c(cc2cc1C)OCO3
IC50 [1]: > 83.3 µM (inactive) | IC50 [2]: > 109 µM (inactive)

COc1ccc(-c2nc(N)n(C(=O)c3ccccc3)n2)cc1
IC50 [1]: > 83.3 µM (inactive) | IC50 [2]: > 109 µM (inactive)

C(=C\n1nnc2ccccc21)/c1ccccn1
EC50 [3]: > 67.5 µM (inactive)

COc1ccc(Cc2nnc(NC(=O)c3ccco3)s2)cc1OC
IC50 [4]: > 100 µM (not active)

COCC1CCN(Cc2nc(-c3cccs3)no2)C1 (stereo unspecified)
EC50 [3]: > 67.5 µM (inactive)

CCn1c2ccccc2c2nnc(SCC(=O)N3CC(C)OC(C)C3)nc21 (stereo unspecified)
IC50 [4]: > 100 µM (not active)

Cc1cc(C)cc(OCc2nc(-c3cccnc3)no2)c1
IC50 [1]: > 83.3 µM (inactive) | IC50 [2]: > 109 µM (inactive)

Cc1ccccc1Cn1c2ccccc2c2cnn(CC(=O)NCCCN3CCN(C)CC3)c(=O)c21
AC50 [5]: 9.43 µM (active)

COc1ccc2cc3cc(C(=O)NC4CC4)sc3nc2c1
AC50 [6]: > 52 µM (inactive) | AC50 [7]: 4.27 µM (active) | AC50 [8]: 3.86 µM (active) | EC50 [9]: 5.41 µM (active) | EC50 [10]: 6.66 µM (inconclusive) | EC50 [11]: 7.47 µM (active) | AC50 [12]: > 52 µM (inactive) | AC50 [13]: 29.1 µM (active)

O=C1/C(=C/Nc2ccccc2O)c2ccccc2C(=O)N1c1nccs1
EC50 [14]: > 99 µM (inactive) | AC50 [15]: > 70 µM (inactive) | EC50 [16]: > 99 µM (inactive) | IC50 (Albumin): > 94.1 µM (inactive)

Cc1ccc(OCc2ccc(Br)cc2)c([N+](=O)[O-])n1
EC50 [3]: > 67.5 µM (inactive)

Cc1cccc(C(=O)NCC(=O)NNC(=O)c2ccccc2O)c1
IC50 (Albumin): > 94 µM (inactive)

CN(C)CCN(C(=O)c1ccc2ccccc2c1)c1nc2cc3c(cc2s1)OCO3
AC50 [5]: 28.3 µM (active)

COc1ccccc1CCn1cnc(-c2ccc(Cl)cc2)c1CC(C)C
AC50 [6]: 31.2 µM (active) | AC50 [7]: 17.7 µM (active) | IC50 [17]: 6.55 µM (active) | AC50 [8]: 19 µM (active) | IC50 (cells [18]): 14.2 µM (inactive) | EC50 [19]: 2.37 µM (active) | EC50 (cells [20]): > 30 µM (inactive) | AC50 [12]: > 52 µM (inactive) | AC50 [13]: 23.2 µM (active)

CO[C@H]1CN(C)C(=O)c2cc(NC(=O)c3ccc(-c4ccccc4)cc3)ccc2OC[C@H](C)NC[C@H]1C
AC50 [21]: 5.36 µM (active) | AC50 [22]: 10.1 µM (active)

COc1cccc(S(=O)(=O)Nc2ccc3c(c2)[C@@H]2C[C@H](CC(=O)NCc4ccc(Cl)cc4)O[C@@H](CO)[C@@H]2O3)c1
AC50 [21]: 5.66 µM (active) | AC50 [22]: > 39 µM (inactive)

Fc1ccc(Nc2nc(-c3ccncc3)cs2)cc1
IC50 [1]: > 83.2 µM (inactive) | IC50 [2]: > 109 µM (inactive)
